This is an account of results in patent US20250326744A1, “PIPERAZINE DERIVATIVE OR SALT THEREOF, AND PHARMACEUTICAL COMPOSITION” (priority 2022, published 2025).

In the test the test system is mexB (EC) strain. Briefly: Efflux ability inhibition effect on drug efflux pump MexB (Test Examples 1 and 3): proliferation (OD595) of mexB (EC) strain with EM or LVFX at 1/4 MIC, EC75. It is filed as cell-based, Escherichia coli. The note with it: Table 51, Test Example 1, 16 to 20 hours culture, OD595; for EC75, mexB (EC) strain, EM: combined with EM at 1/4 MIC; for EC75, mexB (EC) strain, LVFX: combined with LVFX at 1/4 MIC. The method, then:
The efflux ability inhibition effect of the test compound on the drug efflux pump was evaluated using the bacterial proliferative ability in the presence of EM or LVFX as an index.
EM is a macrolide antibacterial agent and is a drug that is discharged outside the bacteria by MexB and MexY LVFX is a quinolone antibacterial agent and is a drug that is discharged outside the bacteria by MexB and MexY In a case where the test compound has an efflux ability inhibitory ability against the drug efflux pump, the proliferation of bacteria is suppressed by the combined use of EM or LVFX and the test compound, as compared with the case where EM or LVFX is used alone.
A mutant strain (hereinafter, referred to as an “mexB (EC) strain”) obtained by transferring the genes of the main multidrug efflux system MexAB-OprM of Pseudomonas aeruginosa described in Nature, 2013, Vol. 500, pp. 102 to 106 as a plasmid into Escherichia coli strains in which the acrB and tolC genes of the multidrug efflux system AcrAB-TolC were deleted as described in Journal of Infection and Chemotherapy 2008, Vol. 14, pp. 23 to 29, and a gene transfer strain (hereinafter, referred to as an “mexY (EC) strain”) of another main multidrug efflux system MexXY-OprM of Pseudomonas aeruginosa were used for the evaluation of test compounds.
In the mexB (EC) strain, an expression level of MexB of the drug efflux pump is accelerated, and in the mexY (EC) strain, an expression level of MexY of the drug efflux pump is accelerated.
For culturing each Escherichia coli strain, a 96-well plate (amount of culture medium per well: 100 μL) was used and Luria-Bertani broth (LB) culture medium was used. The inoculation amount of the bacteria was set to 10^4 to 5 CFU/well.
The mexB (EC) strain and the mexY (EC) strain were cultured for 16 to 20 hours in a culture medium to which EM or LVFX and test compounds at various concentrations (0 to 800 μM) were added, and the proliferation of the bacterial strains was evaluated by optical turbidity at 595 nm (OD595). The concentration of the antibacterial agents (EM and LVFX) in the culture medium were each set to ¼ of the minimum inhibitory concentration (MIC) (hereinafter, referred to as ¼ MIC) of the single antibacterial agent.
The proliferation of bacteria in a case where the antibacterial agent was added at the concentration of ¼ MIC in a case where the test compound was not added was measured, and compared with the proliferation of bacteria in a case where the test compound was contained, and the lowest concentration of the test compound at which the proliferation was inhibited by 75% or more was defined as the drug efflux pump inhibitory ability of the test compound as 75% inhibitory effect concentration (EC75).
The drug efflux pump inhibitory ability of each test compound in a case of being used in combination with the antibacterial agent against the mexB (EC) strain and the mexY (EC) strain was evaluated as follows according to the value of EC75. • S: EC75≤[…] • A: 12.5 μM<EC75≤25 μM • B: 25 μM<EC75≤100 μM • C: […]
In the same manner as in Test Example 1, the efflux ability inhibition effect of the test compound on the drug efflux pump was evaluated using the bacterial proliferation ability in the presence of EM or LVFX as an index.

Each structure is given as a SMILES string. Structures can show the parent of a compound that is named as a salt.

Turning to `COc1ccccc1CN1CCN(C(=O)CN2CCN(CCc3ccccn3)CC2)CC1` [Example 288, 1-(4-(2-Methoxybenzyl)piperazin-1-yl)-2-(4-(2-(pyridin-2-yl)ethyl)piperazin-1-yl)ethan-1-one and hydrochloride thereof], the “EC75, mexB (EC) strain, EM” value is given as “B (25 μM<EC75≤100 μM)” and the “EC75, mexB (EC) strain, LVFX” value was “B (25 μM<EC75≤100 μM)”.

`COc1ccccc1CN1CCN(C(=O)CN2CCC(CCc3ccccc3)(NC(C)=O)CC2)CC1` [Example 415, hydrochloride of N-(1-(2-(4-(2-methoxybenzyl)piperazin-1-yl)-2-oxoethyl)-4-phenethylpiperidin-4-yl)acetamide]: the “EC75, mexB (EC) strain, LVFX” value is on record as “A (12.5 μM<EC75≤25 μM)”.

On to `N#Cc1ccccc1CN1CCN(C(=O)CN2CCN(CCc3ccccc3)CC2)CC1` [Example 234, Hydrochloride of 2-((4-(2-(4-phenethylpiperazin-1-yl)acetyl)piperazin-1-yl)methyl)benzonitrile], for which the “EC75, mexB (EC) strain, LVFX” value is listed as “B (25 μM<EC75≤100 μM)”.

For the molecule `COCc1ccccc1CN1CCN(C(=O)CN2CCN(CCc3ccccc3)CC2)CC1` [Example 263, Hydrochloride of 1-(4-(2-(methoxymethyl)benzyl)piperazin-1-yl)-2-(4-phenethylpiperazin-1-yl)ethan-1-one], the “EC75, mexB (EC) strain, EM” value was “A (12.5 μM<EC75≤25 μM)” and the “EC75, mexB (EC) strain, LVFX” value is “A (12.5 μM<EC75≤25 μM)”.

Turning to `N[C@@H](C(=O)N1CCN(Cc2cccc3cc[nH]c23)CC1)C1CCN(CCc2cc(Cl)ccc2-c2ccccc2)CC1` [Example 40, Hydrobromide of (R)-1-(4-((1H-indol-7-yl)methyl)piperazin-1-yl)-2-amino-2-(1-(2-(4-chloro-[1,1′-biphenyl]-2-yl)ethyl)piperidin-4-yl) ethan-1-one], the “EC75, mexB (EC) strain, LVFX” value is on record as “B (25 μM<EC75≤100 μM)”.

For the molecule `CCOc1cccc(F)c1CN1CCN(C(=O)[C@H](N)C2CCN(CCc3ccccc3C(=O)OC)CC2)CC1` [Example 129, Hydrochloride of Methyl (R)-2-(2-(4-(1-amino-2-(4-(2-ethoxy-6-fluorobenzyl)piperazin-1-yl)-2-oxoethyl)piperidin-1-yl)ethyl)benzoate], the “EC75, mexB (EC) strain, EM” value is “A (12.5 μM<EC75≤25 μM)”.

On to `CCOc1cccc(F)c1CN1CCN(C(=O)[C@H](N)C2CCN(CCc3cccc(O)c3)CC2)CC1` [Example 130, Hydrochloride of (R)-2-amino-1-(4-(2-ethoxy-6-fluorobenzyl)piperazin-1-yl)-2-(1-(3-hydrophenethyl)piperidin-4-yl) ethan-1-one], for which the “EC75, mexB (EC) strain, EM” value is “B (25 μM<EC75≤100 μM)” and the “EC75, mexB (EC) strain, LVFX” value is recorded as “A (12.5 μM<EC75≤25 μM)”.

`COc1ccccc1CN1CCN(C(=O)CN2CCN(CCc3cncs3)CC2)CC1` [Example 294, 1-(4-(2-Methoxybenzyl)piperazin-1-yl)-2-(4-(2-(thiazol-5-yl)ethyl)piperazin-1-yl)ethan-1-one and hydrochloride thereof]: the “EC75, mexB (EC) strain, LVFX” value was “A (12.5 μM<EC75≤25 μM)”.

Take `COc1cccc(OCCN)c1CN1CCN(C(=O)CN2CCN(CCc3ccccc3)CC2)CC1` [Example 266, hydrochloride of 1-(4-(2-(2-aminoethoxy)-6-methoxybenzyl)piperazin-1-yl)-2-(4-phenethylpiperazin-1-yl)ethan-1-one]: the “EC75, mexB (EC) strain, LVFX” value is given as “B (25 μM<EC75≤100 μM)”.

On to `O=C(CN1CCN(CCc2ccccc2)CC1)N1CCN(Cc2ccccc2[N+](=O)[O-])CC1` [Example 235, Hydrochloride of 1-(4-(2-nitrobenzyl)piperazin-1-yl)-2-(4-phenethylpiperazin-1-yl) ethan-1-one], for which the “EC75, mexB (EC) strain, EM” value is listed as “B (25 μM<EC75≤100 μM)” and the “EC75, mexB (EC) strain, LVFX” value is reported as “B (25 μM<EC75≤100 μM)”.

In the case of `CCOc1cccc(F)c1CN1CCN(C(=O)[C@H](N)C2CCN(CCc3nsc4ccccc34)CC2)CC1` [Example 160, Hydrobromide of (R)-2-amino-2-(1-(2-(benzo[d]isothiazol-3-yl)ethyl)piperidin-4-yl)-1-(4-(2-ethoxy-6-fluorobenzyl)piperazin-1-yl)ethan-1-one], the “EC75, mexB (EC) strain, EM” value was “A (12.5 μM<EC75≤25 μM)” and the “EC75, mexB (EC) strain, LVFX” value is given as “A (12.5 μM<EC75≤25 μM)”.

With `COc1cccc(F)c1C(C)N1CCN(C(=O)CN2CCN(CCc3ccccc3)CC2)CC1.Cl` (stereo not shown) [Example 269, hydrochloride of 1-(4-(1-(2-fluoro-6-methoxyphenyl)ethyl)piperazin-1-yl)-2-(4-phenethylpiperazin-1-yl)ethan-1-one], the “EC75, mexB (EC) strain, EM” value is reported as “A (12.5 μM<EC75≤25 μM)” and the “EC75, mexB (EC) strain, LVFX” value is listed as “A (12.5 μM<EC75≤25 μM)”.

Regarding `O=C(CN1CCN(CCc2ccccc2)CC1)N1CCN(Cc2sccc2Cl)CC1` [Example 251, Hydrochloride of 1-(4-((3-chlorothiophen-2-yl)methyl)piperazin-1-yl)-2-(4-phenethylpiperazin-1-yl)ethan-1-one], the “EC75, mexB (EC) strain, EM” value was “A (12.5 μM<EC75≤25 μM)” and the “EC75, mexB (EC) strain, LVFX” value is listed as “B (25 μM<EC75≤100 μM)”.

`CCOc1cccc(F)c1CN1CCN(C(=O)[C@H](N)C2CCN(CCc3cc(Cl)ccc3-c3cccc(F)c3)CC2)CC1` [Example 60, Hydrobromide of (R)-2-amino-2-(1-(2-(4-chloro-3′-fluoro-[1,1′-biphenyl]-2-yl)ethyl)piperidin-4-yl)-1-(4-(2-ethoxy-6-fluorobenzyl)piperazin-1-yl)ethan-1-one]: the “EC75, mexB (EC) strain, EM” value is recorded as “A (12.5 μM<EC75≤25 μM)”.

As to `CCOc1cccc(/C=C/c2nnn[nH]2)c1CN1CCN(C(=O)[C@H](N)C2CCN(CCc3ccccc3)CC2)CC1` [Example 33, Hydrobromide of (R,E)-1-(4-(2-(2-(1H-tetrazol-5-yl)vinyl)-6-ethoxybenzyl)piperazin-1-yl)-2-amino-2-(1-phenethylpiperidin-4-yl) ethan-1-one], the “EC75, mexB (EC) strain, EM” value is “B (25 μM<EC75≤100 μM)” and the “EC75, mexB (EC) strain, LVFX” value is listed as “B (25 μM<EC75≤100 μM)”.

With `COc1ccccc1CN1CCN(C(=O)CC2CCN(CCc3ccccc3)CC2)CC1` [Example 304, hydrochloride of 1-(4-(2-methoxybenzyl)piperazin-1-yl)-2-(1-phenethylpiperidin-4-yl)ethan-1-one], the “EC75, mexB (EC) strain, EM” value is given as “A (12.5 μM<EC75≤25 μM)” and the “EC75, mexB (EC) strain, LVFX” value was “B (25 μM<EC75≤100 μM)”.

Regarding `CCOc1cccc(F)c1CN1CCN(C(=O)[C@H](N)C2CCN(CCc3ccccc3N)CC2)CC1` [Example 146, Hydrobromide of (R)-2-amino-2-(1-(2-aminophenethyl)piperidin-4-yl)-1-(4-(2-ethoxy-6-fluorobenzyl)piperazin-1-yl) ethan-1-one], the “EC75, mexB (EC) strain, EM” value was “A (12.5 μM<EC75≤25 μM)”.

Take `CN(C)c1ccccc1CN1CCN(C(=O)CN2CCN(CCc3ccccc3)CC2)CC1` [Example 224, Hydrochloride of 1-(4-(2-(dimethylamino)benzyl)piperazin-1-yl)-2-(4-phenethylpiperazin-1-yl)ethan-1-one]: the “EC75, mexB (EC) strain, LVFX” value is listed as “A (12.5 μM<EC75≤25 μM)”.

`O=C(CN1CCN(CCc2ccccc2)CC1)N1CCN(Cc2ccccc2CO)CC1` [Example 262, Hydrochloride of 1-(4-(2-(hydroxymethyl)benzyl)piperazin-1-yl)-2-(4-phenethylpiperazin-1-yl)etban-1-one]: the “EC75, mexB (EC) strain, EM” value was “A (12.5 μM<EC75≤25 μM)” and the “EC75, mexB (EC) strain, LVFX” value was “B (25 μM<EC75≤100 μM)”.

Regarding `CCOc1cccc(F)c1CN1CCN(C(=O)[C@H](N)C2CCN(CCc3cn(-c4ccccc4F)c4ccccc34)CC2)CC1` [Example 157, Hydrobromide of (R)-2-amino-1-(4-(2-ethoxy-6-fluorobenzyl)piperazin-1-yl)-2-(1-(2-(1-(2-fluorophenyl)-1H-indol-3-yl)ethyl)piperidin-4-yl)ethan-1-one], the “EC75, mexB (EC) strain, EM” value is reported as “A (12.5 μM<EC75≤25 μM)” and the “EC75, mexB (EC) strain, LVFX” value is reported as “A (12.5 μM<EC75≤25 μM)”.
